Assay results from ChEMBL document CHEMBL3621168, “Elucidating new structural features of the triazole scaffold for the development of mPGES-1 inhibitors” (Medchemcomm, 2015).

Tests used:
Prostaglandin E synthase = biological target: T1, Prostaglandin E synthase (Homo sapiens, UniProt O14684); test: Inhibition of mPGES1 isolated from human A549 cells after 15 mis by RP HPLC analysis; type: cell-free
T1 sequence (O14684 whole entry): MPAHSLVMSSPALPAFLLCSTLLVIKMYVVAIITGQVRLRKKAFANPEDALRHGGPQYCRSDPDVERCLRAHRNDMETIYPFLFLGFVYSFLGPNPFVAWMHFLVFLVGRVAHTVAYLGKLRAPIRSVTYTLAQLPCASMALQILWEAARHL

[1] = biological target: T2, Prostaglandin E synthase (Homo sapiens) (UniProt O14684); test: Inhibition of mPGES1 isolated from human A549 cells at 10 uM after 15 mis by RP HPLC analysis; type: cell-free
T2 sequence (whole entry): T1 sequence (O14684 whole entry)

| Structure (SMILES) | IC50 (Prostaglandin E synthase) | inhibition [1] |
| --- | --- | --- |
| N#Cc1ccc(-n2cc(COc3ccc([N+](=O)[O-])cc3C(F)(F)F)nn2)cc1C(F)(F)F | > 30 µM | 20% |
| N#Cc1ccc(-n2cc(COc3ccc(C(F)(F)F)cc3)nn2)cc1C(F)(F)F | > 30 µM | 20% |
| N#Cc1ccc(-n2cc(COc3cccc(C(F)(F)F)c3)nn2)cc1C(F)(F)F | > 30 µM | 20% |
| N#Cc1ccc(-n2nnc(COc3ccc([N+](=O)[O-])cc3C(F)(F)F)c2I)cc1C(F)(F)F | 0.7 µM | – |
| O=[N+]([O-])c1ccc(OCc2cn(-c3cccc(C(F)(F)F)c3)nn2)c(C(F)(F)F)c1 | > 30 µM | 20% |
